Values joined by “and” are separate entries in the source; they are usually repeats but may differ in a detail not shown here. Equal values may be shown once. “Also recorded” adds a separate entry of the source. Read-outs that look alike come from different tables or passages of the source.
Key:
HCT116 cells [1] = details: read-out: GI50 (potency), cited from earlier work
HT29 cells [2] = details: read-out: GI50 (potency), cited from earlier work
HCT116 cells [3] = assay: Sulforhodamine B (SRB) growth inhibition assay with median effect analysis, HCT116; assay type: cell-based, human; details: HCT116, single agent
Procedure: (§1) Growth was then measured using the Sulforhodamine B (SRB) method and analysed as described previously. The GI50 concentration was calculated based on a standard point to point curve with 1000 segments using GraphPad Prism software (California, USA). The data were analysed by median effect analysis using CalcuSyn software (Biosoft, Cambridgeshire, UK), which calculates the combination index of multiple drugs by an algebraic estimation algorithm.

HT29 cells [4] = assay: Sulforhodamine B (SRB) growth inhibition assay with median effect analysis, HT29; assay type: cell-based, human
Procedure: as §1

[5] = Pharmacokinetic study, plasma and tumour concentrations, HCT116 xenograft-bearing mice; assay type: in vivo
Procedure: (§2) Animal studies were all carried out using female athymic CD1 nude mice (Charles River, Kent, UK), implanted with HCT116 or HT29 xenografts (1 × 10^7 cells in 50 µl media injected subcutaneously into the right flank), maintained and handled in isolators under specific pathogen-free conditions.
(§3) Mice bearing HCT116 or HT29 human tumour xenografts were treated with 1 or 5 mg/kg WX-554, or 20 or 100 mg/kg WX-037, alone or in combination, and were bled by cardiac puncture under terminal anaesthesia at 6 or 24 h post-treatment (3 mice/time point). Blood was collected into heparinized tubes, and plasma was separated and stored at −20 °C until analysed. Tumours were removed, snap frozen in liquid nitrogen and stored at −80 °C prior to PK analyses. Samples were extracted with solid phase extraction (SPE) and analysed with high-performance liquid chromatography (HPLC) coupled with tandem mass spectrometry (MS/MS) by Wilex (Munich, Germany). The quantification limit for WX-554 was 1 ng/mL and within and between day variation was <15%. WinNonlin Software Version 4.0.1 (Pharsight Corporation, Peypin, France) was used for PK/PD modelling and non-compartmental analysis. Paired t tests were used to compare the different treatment groups, and differences with a p value ≤0.05 were considered statistically significant.

MEK1 = details: stated in Introduction, method and reference not given; read-out: half maximal inhibitory concentration (IC50), MEK1; cited from earlier work
[6] = set-up: method as in earlier work; details: dose escalation study in healthy volunteers; cited from earlier work
[7] = Tolerability (body weight) in the HCT116 xenograft efficacy study; assay type: in vivo; details: HCT116 xenograft mice, 2 mg/kg WX-554 and/or 50 mg/kg WX-037 p.o. once daily for 14 days
Procedure: (§4) Mice bearing HCT116 human tumour xenografts were randomized into treatment groups and then treated by oral gavage with either the vehicle (10 ml/kg), 2 mg/kg WX-554, 50 mg/kg WX-037 or the combination of 2 mg/kg WX-554 and 50 mg/kg WX-037 once daily for 14 days. Tumour volume was monitored by calliper measurement using the equation a ^2 × b/2, where a is the smallest measurement and b the largest. Data are presented as median relative tumour volumes (RTV), where the tumour volume in each mouse on the initial day of treatment (day 0) is assigned an RTV value of 1. The time to RTV4 for each individual tumour was calculated based on a standard point to point curve with 1000 segments using GraphPad Prism software (CA, USA). Mann–Whitney U tests were used to compare the different groups, i.e., the control versus each treatment group, the single agents versus each other and each single agent versus their combination. Differences with a p value ≤0.05 were considered statistically significant.
Based on the results of the PK study, the efficacy of 50 mg/kg of the PI3K inhibitor WX-037 and 2 mg/kg of the MEK inhibitor WX-554 given orally, as single agents and in combination, was assessed in HCT116 human tumour xenograft-bearing mice (Fig. 5). […] In this study, mice were treated daily for 14 days and tumour volumes were measured three times a week.

HCT116 cells [8] = assay: Clonogenic cytotoxicity assay, HCT116
Text: (§6) HCT116 and HT29 human colorectal cancer cells were obtained from the ATCC (American Type Culture Collection).
(§7) After growth for 10–14 days, colonies were fixed in methanol–acetic acid 3:1 (v/v) and stained with crystal violet (0.4% w/v). Colonies consisting of more than 50 cells were counted on an automated colony counter (Oxford Optronix, Oxford, UK). Two-tailed paired t tests were used to compare the different groups. Differences with a p < 0.05 were considered statistically significant.

[9] = tested on: HCT116 human tumour xenografts; assay: Anti-tumour activity in HCT116 xenograft-bearing mice; assay type: in vivo; details: 2 mg/kg WX-554 and/or 50 mg/kg WX-037 p.o. once daily for 14 days
Procedure: as §2, §4

[10] = Pharmacokinetic study, plasma and tumour concentrations, HT29 xenograft-bearing mice; assay type: in vivo
Procedure: as §2, §3

[11] = tested on: phosphorylation of ERK1/2, AKT, S6 and 4EBP1 in HCT116 cells; assay: Western blotting of PI3K/AKT and MAPK signal transduction, HCT116; assay type: cell-based, human; details: HCT116, 24 h, 1x or 10x GI50, Western blot
Procedure: (§5) Western blots were prepared, probed with phospho-4EBP1 (Thr37/46) (#2855), phospho-p44/42 MAPK (Thr202/Tyr204) (#4370), phospho-AKT (Ser473) (#4060) or phospho-S6 ribosomal protein (Ser235/236) (#4858) monoclonal antibodies obtained from Cell Signalling Technology (New England BioLabs (UK) Ltd, Hertfordshire, UK) and developed as described previously. Blots were then stripped (100 mM 2-mercaptoethanol, 2% (w/v) SDS and 62.5 mM Tris pH6.8 at 55 °C for 30 min) and re-probed with the respective total monoclonal antibody (4EBP1 (53H11) (#9644), p44/42 MAPK (ERK1/2) (#4695), AKT (pan) (C67E7) (#4691) or S6 ribosomal protein (5g10) (#2217)) obtained from Cell Signalling Technology (New England BioLabs (UK) Ltd, Hertfordshire, UK) and developed as described above.

[12] = tested on: phosphorylation of ERK1/2, AKT, S6 and 4EBP1 in HT29 cells; assay: Western blotting of PI3K/AKT and MAPK signal transduction, HT29; assay type: cell-based, human; details: HT29, 24 h, 1x or 10x GI50, Western blot
Procedure: as §5

MEK2 = details: stated in Introduction, method and reference not given; read-out: half maximal inhibitory concentration (IC50), MEK2; cited from earlier work
[13] = set-up: method as in PMID 23587417, PMID 24434059; details: recent Phase I study; cited from earlier work
HT29 cells [14] = assay: Clonogenic cytotoxicity assay, HT29
Text: as §6, §7

[15] = 1 mg/kg WX-554 + 20 mg/kg WX-037, single p.o. dose
[16] = 1 mg/kg WX-554 + 100 mg/kg WX-037, single p.o. dose
[17] = 1 mg/kg WX-554 alone, single p.o. dose
[18] = 5 mg/kg WX-554 + 20 mg/kg WX-037, single p.o. dose
[19] = 5 mg/kg WX-554 + 100 mg/kg WX-037, single p.o. dose
[20] = 5 mg/kg WX-554 alone, single p.o. dose

O=C(NOC[C@H](O)CO)c1ccc(F)c(F)c1Nc1ccc(I)cc1F [PD 0325901]
GI50 (HCT116 cells [1]; HCT116, using the same assay): 21 nM | GI50 (HT29 cells [2]; HT29, using the same assay): 6.5 nM

CS(=O)(=O)N1CCN(Cc2cc3nc(-c4cccc5[nH]ncc45)nc(N4CCOCC4)c3s2)CC1 [pictilisib, 2-(1H-Indazol-4-yl)-6-(4-methanesulfonyl-piperazin-1-ylmethyl)-4-morpholin-4-yl-thieno[3,2-d]pyrimidine]
GI50 (HCT116 cells [1]; HCT116, using the same assay): 1080 nM | GI50 (HT29 cells [2]; HT29, using the same assay): 157 nM

NCC1CN(C(=O)c2c(Nc3ccc(I)cc3F)sc3ncccc23)C1 [WX-554]
GI50 (HCT116 cells [3]; 72-h exposure, SRB, read-out: GI50 (half maximal growth inhibitory concentration)): 38 nM | in vitro GI50 value (HCT116 cells [3]; determined in Supplementary Figure 1): 0.018 µg/mL | fold difference in sensitivity, HT29 more sensitive than HCT116 (HT29 cells [4]; GI50 HCT116 versus GI50 HT29): 9 fold | GI50 (HT29 cells [4]; HT29, single agent, 72-h exposure, SRB, read-out: GI50 (half maximal growth inhibitory concentration)): 4.3 nM and 4 nM | in vitro GI50 value (HT29 cells [4]; HT29, single agent, determined in Supplementary Figure 1): 0.002 µg/mL | WX-554 Concentration ± SD, Plasma, 6 hours [5, 15]: 17 ± 9 ng/mL | WX-554 Concentration ± SD, Plasma, 24 hours [5, 15]: 6 ± 6 ng/mL | WX-554 Concentration ± SD, Tumour, 6 hours [5, 15]: 184 ± 62 ng/mL | WX-554 Concentration ± SD, Tumour, 24 hours [5, 15]: 141 ± 58 ng/mL | WX-554 Concentration ± SD, Plasma, 6 hours [5, 16]: 20 ± 10 ng/mL | WX-554 Concentration ± SD, Plasma, 24 hours [5, 16]: 10 ± 7 ng/mL | WX-554 Concentration ± SD, Tumour, 6 hours [5, 16]: 319 ± 139 ng/mL | WX-554 Concentration ± SD, Tumour, 24 hours [5, 16]: 464 ± 263 ng/mL | WX-554 Concentration ± SD, Plasma, 6 hours [5, 17]: 19 ± 5 ng/mL | WX-554 Concentration ± SD, Plasma, 24 hours [5, 17]: 2 ± 1 ng/mL | WX-554 Concentration ± SD, Tumour, 6 hours [5, 17]: 478 ± 97 ng/mL | WX-554 Concentration ± SD, Tumour, 24 hours [5, 17]: 309 ± 30 ng/mL | WX-554 Concentration ± SD, Plasma, 6 hours [5, 18]: 74 ± 27 ng/mL | WX-554 Concentration ± SD, Plasma, 24 hours [5, 18]: 28 ± 7 ng/mL | WX-554 Concentration ± SD, Tumour, 6 hours [5, 18]: 673 ± 453 ng/mL | WX-554 Concentration ± SD, Tumour, 24 hours [5, 18]: 1240 ± 282 ng/mL | WX-554 Concentration ± SD, Plasma, 6 hours [5, 19]: 98 ± 18 ng/mL | WX-554 Concentration ± SD, Plasma, 24 hours [5, 19]: 68 ± 19 ng/mL | WX-554 Concentration ± SD, Tumour, 6 hours [5, 19]: 804 ± 353 ng/mL | WX-554 Concentration ± SD, Tumour, 24 hours [5, 19]: 1583 ± 369 ng/mL | WX-554 Concentration ± SD, Plasma, 6 hours [5, 20]: 130 ± 37 ng/mL | WX-554 Concentration ± SD, Plasma, 24 hours [5, 20]: 11 ± 2 ng/mL | WX-554 Concentration ± SD, Tumour, 6 hours [5, 20]: 1724 ± 442 ng/mL | WX-554 Concentration ± SD, Tumour, 24 hours [5, 20]: 360 ± 223 ng/mL | IC50 (MEK1): 4.7 nM | safety and tolerability [6]: safe and tolerable | tolerability / toxicity [7]: non-toxic | LC50 fold higher than the corresponding GI50 (HCT116 cells [8]; HCT116): approximately 16 fold | cell kill (cytotoxicity, cell death) (HCT116 cells [8]; HCT116, single agent 10 µM, 72 h, clonogenic assay): 67% | CC50 (HCT116 cells [8]; read-out: mean lethal concentration (LC50), HCT116, 72-h exposure, clonogenic assay): 600 nM | tumour growth compared to vehicle-treated control tumours [9]: caused tumour growth delay; also recorded: induced tumour growth delay | WX-554 Concentration ± SD, Plasma, 6 hours [10, 15]: 101 ± 39 ng/mL | WX-554 Concentration ± SD, Plasma, 24 hours [10, 15]: 5 ± 3 ng/mL | WX-554 Concentration ± SD, Tumour, 6 hours [10, 15]: 1180 ± 597 ng/mL | WX-554 Concentration ± SD, Tumour, 24 hours [10, 15]: 447 ± 80 ng/mL | WX-554 Concentration ± SD, Plasma, 6 hours [10, 16]: 19 ± 14 ng/mL | WX-554 Concentration ± SD, Plasma, 24 hours [10, 16]: 13 ± 7 ng/mL | WX-554 Concentration ± SD, Tumour, 6 hours [10, 16]: 159 ± 102 ng/mL | WX-554 Concentration ± SD, Tumour, 24 hours [10, 16]: 407 ± 66 ng/mL | WX-554 Concentration ± SD, Plasma, 6 hours [10, 17]: 21 ± 1 ng/mL | WX-554 Concentration ± SD, Plasma, 24 hours [10, 17]: 3 ± 1 ng/mL | WX-554 Concentration ± SD, Tumour, 6 hours [10, 17]: 510 ± 40 ng/mL | WX-554 Concentration ± SD, Tumour, 24 hours [10, 17]: 419 ± 134 ng/mL | WX-554 Concentration ± SD, Plasma, 6 hours [10, 18]: 81 ± 26 ng/mL | WX-554 Concentration ± SD, Plasma, 24 hours [10, 18]: 52 ± 58 ng/mL | WX-554 Concentration ± SD, Tumour, 6 hours [10, 18]: 1143 ± 416 ng/mL | WX-554 Concentration ± SD, Tumour, 24 hours [10, 18]: 2493 ± 979 ng/mL | WX-554 Concentration ± SD, Plasma, 6 hours [10, 19]: 47 ± 33 ng/mL | WX-554 Concentration ± SD, Plasma, 24 hours [10, 19]: 49 ± 10 ng/mL | WX-554 Concentration ± SD, Tumour, 6 hours [10, 19]: 446 ± 239 ng/mL | WX-554 Concentration ± SD, Tumour, 24 hours [10, 19]: 2423 ± 584 ng/mL | WX-554 Concentration ± SD, Plasma, 6 hours [10, 20]: 118 ± 25 ng/mL | WX-554 Concentration ± SD, Plasma, 24 hours [10, 20]: 13 ± 3 ng/mL | WX-554 Concentration ± SD, Tumour, 6 hours [10, 20]: 2748 ± 378 ng/mL | WX-554 Concentration ± SD, Tumour, 24 hours [10, 20]: 1916 ± 207 ng/mL | GI50 (HCT116 cells [1]; HCT116, unpublished Wilex studies): 29 nM | reduction of ERK1/2 phosphorylation [11]: reduced ERK1/2 phosphorylation at 1 and 10 times the GI50 concentration | reduction of ERK1/2 phosphorylation [12]: at 10 times the GI50 concentration in the HT29 cell line | GI50 (HT29 cells [2]; HT29, unpublished Wilex studies): 7.2 nM | IC50 (MEK2): 11 nM | bioavailability [13]: very good bioavailability | LC50 fold higher than the corresponding GI50 (HT29 cells [14]; HT29): ~372 fold | cell kill (cytotoxicity, cell death) (HT29 cells [14]; HT29, single agent 10 µM, 72 h, clonogenic assay): 75% | CC50 (HT29 cells [14]; read-out: mean lethal concentration (LC50), HT29, 72-h exposure, clonogenic assay): 1600 nM

Source: PMC5114336, “Enhanced anti-tumour activity of the combination of the novel MEK inhibitor WX-554 and the novel PI3K inhibitor WX-037” (Cancer Chemotherapy and Pharmacology, 2016)
